Earlier results, collected in patent EP0879035B1, “BISMUTH-CONTAINING COMPOSITIONS IN TOPICAL DOSAGE FORMS” (Josman Laboratories, Inc., priority 1995, dated 1997).
Read-outs that look alike come from different tables or passages of the source.

Experiments:
[1] = dogs treated for six months; 160, 320, and 640 mg/kg body weight
[2] = in vivo
[3] = system: H. Pylori; conditions: against H. Pylori
[4] = rats treated for three months; 160, 320, and 640 mg/kg body weight

In the case of “1,2,3-PROPANETRICARBONIC ACID, 2-HYDROXY, BISMUTH(3T)POTASSIUM [CBS]”, the “toxicity on chronic daily administration” value [1] is given as “No toxicity”, the “steady-state blood levels unlikely to cause any neurotoxicity” value [2] is given as 50-100 and the “systemic bioavailability of bismuth” value ([2]; po) is given as 0.16-0.28 % of the administered dose. The “minimum inhibitory concentration (MIC), range” value [3] was 4 to 32 µg/mL and the “toxicity on chronic daily administration” value [4] was “No toxicity”.
